The source of these data is US8614252B2, “Crystalline solid rasagiline base” (Teva Pharmaceutical Industries Ltd., priority 2006, dated 2013).

≈ marks a conversion by molar mass, not a printed value.

For data set [1] the following is noted: pH 11.
The conditions of data set [2]: alcohols, acetone, ethyl acetate, toluene, diethyl ether, dioxane, hexane and n-heptane.
For data set [3] the following is noted: low levels of volatiles by KF and TGA.

`C#CCN[C@@H]1CCc2ccccc21` [rasagiline base, R(+)-N-propargyl-1-aminoindan] had a solubility in water in data set [1] of 5500 µg/mL (≈ 32.1 mM). The “solubility in organic solvents” value in data set [2] was “freely soluble”. In addition, in data set [3], the hygroscopicity entry was “not hygroscopic”.
